This is an account of results in patent US10857149B2, “Liquid formulations of salts of 1-[2-(2,4-dimethylphenylsulfanyl)phenyl]-piperazine” (H. Lundbeck A/S, priority 2009, dated 2020).

Entries after “also recorded” stand apart in the source; their conditions may differ. Structures can show the parent of a compound that is named as a salt. Where two headings read alike, the source gives them in different places.

The conditions of data set [1]: room temperature, previously known salt forms, Table 2 (WO 2008/113359), cited from earlier work.
Data set [2] in a line: Room temperature (aqueous) solubility of salt forms. It is filed as physicochemical. The conditions noted are these: for aqueous solubility: concentration equivalent to free base; for Solubility: lactate forms, Table 1; for pH at the solubility value: printed in the solubility cell.
Data set [3] is described as follows: Crystal form behaviour on exposure to water / aqueous slurry. Format: physicochemical. To be noted: exposed to water / aqueous slurry.
In the next data set the target is serotonin transporter (Homo sapiens, UniProt P31645). To be noted: cited from earlier work.
Data set [4] deals with extracellular levels of serotonin, noradrenaline, dopamine and acetylcholine. To be noted: rat brains; cited from earlier work.
For the next data set, the target named is T1, 5-HT3 receptor (Homo sapiens, UniProt P46098).
T1 sequence (P46098 24-478): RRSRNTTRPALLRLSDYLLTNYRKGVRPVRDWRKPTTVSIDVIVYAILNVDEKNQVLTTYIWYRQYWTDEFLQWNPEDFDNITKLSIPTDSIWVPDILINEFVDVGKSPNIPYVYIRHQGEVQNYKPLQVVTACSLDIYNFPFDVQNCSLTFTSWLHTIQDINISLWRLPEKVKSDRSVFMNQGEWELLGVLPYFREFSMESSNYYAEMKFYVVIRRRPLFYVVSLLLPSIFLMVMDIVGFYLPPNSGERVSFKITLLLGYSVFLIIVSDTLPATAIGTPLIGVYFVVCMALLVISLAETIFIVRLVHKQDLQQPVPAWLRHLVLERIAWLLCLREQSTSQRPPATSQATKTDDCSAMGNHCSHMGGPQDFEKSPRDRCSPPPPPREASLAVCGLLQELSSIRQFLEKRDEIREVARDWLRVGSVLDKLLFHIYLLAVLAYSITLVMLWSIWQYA
To be noted: listed as compound I; cited from earlier work.

For data set [5] the following is noted: depressed patients; cited from earlier work.

serotonin transporter, sequence (P31645 whole entry): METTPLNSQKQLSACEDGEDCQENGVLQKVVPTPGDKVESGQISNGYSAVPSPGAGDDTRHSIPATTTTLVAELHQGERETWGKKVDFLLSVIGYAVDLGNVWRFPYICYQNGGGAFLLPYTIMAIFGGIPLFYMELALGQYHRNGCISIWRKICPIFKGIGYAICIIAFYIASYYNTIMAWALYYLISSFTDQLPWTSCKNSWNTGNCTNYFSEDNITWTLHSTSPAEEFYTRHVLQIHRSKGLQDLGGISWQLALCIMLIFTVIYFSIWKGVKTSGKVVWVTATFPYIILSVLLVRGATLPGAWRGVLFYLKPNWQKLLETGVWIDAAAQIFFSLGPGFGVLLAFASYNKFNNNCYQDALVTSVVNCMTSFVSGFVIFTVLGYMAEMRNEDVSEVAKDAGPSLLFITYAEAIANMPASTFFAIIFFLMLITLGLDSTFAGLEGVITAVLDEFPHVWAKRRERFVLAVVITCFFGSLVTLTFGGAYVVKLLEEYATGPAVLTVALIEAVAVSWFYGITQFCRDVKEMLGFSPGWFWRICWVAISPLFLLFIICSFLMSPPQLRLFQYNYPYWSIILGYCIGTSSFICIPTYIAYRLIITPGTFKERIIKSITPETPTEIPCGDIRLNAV

Turning to `Cc1ccc(Sc2ccccc2N2CCNCC2)c(C)c1` [Phosphate, 1-[2-(2,4-dimethyl-phenylsulfanyl)-phenyl] piperazine], the Solubility in data set [1] is listed as ~1 mg base/mL.

With `Cc1ccc(Sc2ccccc2N2CCNCC2)c(C)c1` [Nitrate, 1-[2-(2,4-dimethyl-phenylsulfanyl)-phenyl] piperazine], the Solubility in data set [1] is recorded as ~0.8 mg base/mL.

As to `Cc1ccc(Sc2ccccc2N2CCNCC2)c(C)c1` [D-(−)-tartrate, 1-[2-(2,4-dimethyl-phenylsulfanyl)-phenyl] piperazine], the Solubility in data set [1] was ~0.4 mg base/mL.

Turning to `Cc1ccc(Sc2ccccc2N2CCNCC2)c(C)c1` [Fumarate, 1-[2-(2,4-dimethyl-phenylsulfanyl)-phenyl] piperazine], in data set [1], the Solubility is on record as 0.4 mg base/mL.

For `Cc1ccc(Sc2ccccc2N2CCNCC2)c(C)c1` [L-(+)-tartrate, 1-[2-(2,4-dimethyl-phenylsulfanyl)-phenyl] piperazine], the Solubility in data set [1] is given as ~0.4 mg base/mL.

Take `C[C@H](O)C(=O)O.Cc1ccc(Sc2ccccc2N2CCNCC2)c(C)c1` [L-lactate MH1, 1-[2-(2,4-dimethyl-phenylsulfanyl)-phenyl] Piperazine, L-Lactate]: the “Solubility, bound given for a form that could not be measured” value in data set [2] (room temperature, MH1 transforms into MH2 in aqueous slurry) is “na (>26) mg base/mL”. Moreover, the “transformation of crystal form in water” value in data set [3] (listed as MH1) is listed as “transforms into the MH2 in aqueous slurry”.

Take `CC(O)C(=O)O.Cc1ccc(Sc2ccccc2N2CCNCC2)c(C)c1` [DL-lactate γ, 1-[2-(2,4-dimethyl-phenylsulfanyl)-phenyl] Piperazine, DL-Lactate]: the “transformation of crystal form in water” value in data set [3] (listed as γ form) is listed as “transforms into the beta form in aqueous slurry”.

As for `CC(O)C(=O)O.Cc1ccc(Sc2ccccc2N2CCNCC2)c(C)c1` [DL-lactate α, 1-[2-(2,4-dimethyl-phenylsulfanyl)-phenyl] piperazine, DL-Lactate], the “transformation of crystal form in water” value in data set [3] (listed as α form) was “transformed into the β form in the aqueous slurry”.

Turning to `Cc1ccc(Sc2ccccc2N2CCNCC2)c(C)c1` [HBr, α-form, 1-[2-(2,4-dimethyl-phenylsulfanyl)-phenyl] piperazine], in data set [1], the Solubility was 2.0 mg base/mL.

On to `Cc1ccc(Sc2ccccc2N2CCNCC2)c(C)c1` [Compound I, 1-[2-(2,4-dimethylphenylsulfanyl)phenyl]piperazine], for which the figures for the “action at the serotonin transporter” value at serotonin transporter and on serotonin transporter (listed as compound I) were “inhibition” and “inhibitor”, respectively. For the same molecule, the “extracellular levels of serotonin, noradrenaline, dopamine and acetylcholine” value in data set [4] is on record as “increase”. For the same molecule, the Solubility in data set [1] (listed as Crystalline base) is on record as 0.1 mg base/mL. In addition, the “action at the 5-HT3 receptor” value at 5-HT3 receptor is on record as “antagonist; also recorded: antagonism”.

Turning to `CC(O)C(=O)O.Cc1ccc(Sc2ccccc2N2CCNCC2)c(C)c1` [DL-lactate β, 1-[2-(2,4-dimethyl-phenylsulfanyl)-phenyl] Piperazine, DL-Lactate], the aqueous solubility in data set [2] came to 8 mg/mL. For the same molecule, in data set [2] (room temperature), the Solubility is reported as 8 mg base/mL and the “pH at the solubility value” is on record as 6.

For the molecule `Br.Cc1ccc(Sc2ccccc2N2CCNCC2)c(C)c1` [HBr addition salt], in data set [5], the “level of sleep and sexually related adverse events” value is on record as “surprisingly low level”.

For `C[C@H](O)C(=O)O.Cc1ccc(Sc2ccccc2N2CCNCC2)c(C)c1` [L-lactate MH2, 1-[2-(2,4-dimethyl-phenylsulfanyl)-phenyl] Piperazine, L-Lactate], the aqueous solubility in data set [2] is given as 26 mg/mL. For the same molecule, in data set [2] (room temperature), the Solubility is on record as 26 mg base/mL and the “pH at the solubility value” turned out to be 5.2.

As to `Cc1ccc(Sc2ccccc2N2CCNCC2)c(C)c1` [Maleate, 1-[2-(2,4-dimethyl-phenylsulfanyl)-phenyl] piperazine], the Solubility in data set [1] is ~1 mg base/mL.

Turning to `Cc1ccc(Sc2ccccc2N2CCNCC2)c(C)c1` [Meso-tartrate, 1-[2-(2,4-dimethyl-phenylsulfanyl)-phenyl] piperazine], the Solubility in data set [1] is recorded as ~0.7 mg base/mL.

In the case of `Cc1ccc(Sc2ccccc2N2CCNCC2)c(C)c1` [HCl, 1-[2-(2,4-dimethyl-phenylsulfanyl)-phenyl] piperazine], in data set [1], the Solubility is listed as 3.0 mg base/mL.

Consider `Cc1ccc(Sc2ccccc2N2CCNCC2)c(C)c1` [Mesylate, 1-[2-(2,4-dimethyl-phenylsulfanyl)-phenyl] piperazine], for which the Solubility in data set [1] is reported as >45 mg base/mL.

For `CC(O)C(=O)O.Cc1ccc(Sc2ccccc2N2CCNCC2)c(C)c1` [DL-lactate MH, 1-[2-(2,4-dimethyl-phenylsulfanyl)-phenyl] Piperazine, DL-Lactate], the “transformation of crystal form in water” value in data set [3] is given as “transformed into the beta form in aqueous slurry”.

In the case of `Cc1ccc(Sc2ccccc2N2CCNCC2)c(C)c1` [HCl, MH, 1-[2-(2,4-dimethyl-phenylsulfanyl)-phenyl] piperazine], the Solubility in data set [1] is on record as 2.0 mg base/mL.

On to `C[C@H](O)C(=O)O.Cc1ccc(Sc2ccccc2N2CCNCC2)c(C)c1` [L-lactate AH1, 1-[2-(2,4-dimethyl-phenylsulfanyl)-phenyl] Piperazine, L-Lactate], for which the “transformation of crystal form in water” value in data set [3] (listed as AH1) is reported as “transforms into monohydrate when exposed to water”.

In the case of `Cc1ccc(Sc2ccccc2N2CCNCC2)c(C)c1` [HBr, β-form, 1-[2-(2,4-dimethyl-phenylsulfanyl)-phenyl] piperazine], the Solubility in data set [1] was 1.2 mg base/mL.

In the case of `Cc1ccc(Sc2ccccc2N2CCNCC2)c(C)c1` [Sulphate, 1-[2-(2,4-dimethyl-phenylsulfanyl)-phenyl] piperazine], the Solubility in data set [1] is given as ~0.1 mg base/mL.

As usually defined, the aqueous solubility is the concentration that dissolves in the medium under given conditions.
